From US20220031657A1 (NOVARTIS AG, priority 2017, published 2022)
Marks after values point to notes of the source that are not given here.

Columns and labels:
MCF-7 xenograft [1] = assay: Orthotopic MCF-7 xenograft model in NSG mice; assay type: in vivo; conditions: for anti-tumor effect in words: LSZ102 20 mg/kg QD, tamoxifen 60 mg/kg, fulvestrant 5 mg/mouse
Protocol: Mice were supplemented with estradiol (0.72 mg estradiol/90-day release pellets) to further support MCF-7 tumor growth several days prior to cell implantation. MCF-7 tumors were established in female NSG mice by injection of 10×10^6 cells in 50% Matrigel® into the axillary mammary fat pad area of each mouse. When tumors reached an average of 200 mm^3, mice were randomized according to tumor volume into treatment groups (n=8).

HBRX1298 xenograft = assay: ER+ primary breast cancer model HBRX1298 in NSG mice; assay type: in vivo; conditions: 5 mg/mouse SC QWeek, Day 63
Protocol: HBRX1298 tumors were established in NSG female mice by injection of a tumor brei into the inguinal mammary fat pad area. Mice were implanted with 0.72 mg estradiol/90-day release pellets several days prior to cell implantation. When tumors reached approximately 250 mm3, mice were randomized according to tumor volume into treatment groups (n=6 for all, except n=4 for estradiol withdrawal) on Day 38.

MCF-7 cell line = assay: Insulin driven proliferation assay; assay type: cell-based, human
ERα = target: T1, ERα (Homo sapiens, UniProt P03372); assay: Immunoblot ERα protein quantification, MCF-7 parental cells; conditions: 24 hr
T1 sequence (P03372 1-595): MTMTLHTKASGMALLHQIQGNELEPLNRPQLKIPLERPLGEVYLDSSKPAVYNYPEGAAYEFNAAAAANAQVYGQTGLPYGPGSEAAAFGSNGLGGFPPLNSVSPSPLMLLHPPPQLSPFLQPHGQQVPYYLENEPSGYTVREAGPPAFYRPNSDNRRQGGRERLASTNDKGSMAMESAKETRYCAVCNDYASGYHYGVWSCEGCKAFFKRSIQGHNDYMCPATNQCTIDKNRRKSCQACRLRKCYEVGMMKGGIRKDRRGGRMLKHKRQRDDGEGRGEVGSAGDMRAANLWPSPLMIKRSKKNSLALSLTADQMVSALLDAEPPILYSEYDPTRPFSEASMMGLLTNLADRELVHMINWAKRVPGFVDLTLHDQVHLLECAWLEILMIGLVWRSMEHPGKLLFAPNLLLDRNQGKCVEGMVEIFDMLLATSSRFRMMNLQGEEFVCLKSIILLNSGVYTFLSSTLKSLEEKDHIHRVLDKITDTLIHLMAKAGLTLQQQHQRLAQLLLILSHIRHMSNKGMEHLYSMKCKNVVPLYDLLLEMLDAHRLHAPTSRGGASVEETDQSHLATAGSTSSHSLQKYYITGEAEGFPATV

MCF-7 xenograft [2] = assay: Dose fractionation study in mice with MCF-7 xenografts; assay type: in vivo; conditions: 5 mg/mouse SC QWeek, Day 61

SMILES	ΔT/ΔC (%) (MCF-7 xenograft [1]; 5 mg/mouse SC QWeek, Day 48)	anti-tumor effect in words (MCF-7 xenograft [1])	ΔT/ΔC (%) (HBRX1298 xenograft)	effect in insulin driven proliferation assay (MCF-7 cell line)	ER protein levels (ERα)	ΔT/ΔC (%) (MCF-7 xenograft [2])
C[C@]12CC[C@@H]3c4ccc(O)cc4C[C@@H](CCCCCCCCC[S+]([O-])CCCC(F)(F)C(F)(F)F)[C@H]3[C@@H]1CC[C@@H]2O (some centres unmarked) [Fulvestrant]	24* %	suppression of growth	48* %	inhibited	significantly reduce ER protein levels	18* %
CC/C(=C(\c1ccccc1)c1ccc(OCCN(C)C)cc1)c1ccccc1 [Tamoxifen]		tumor stasis		unaffected		
